Reference: US8653022B2, “Use of ghrelin splice variant for treating hypercholesterolemia and/or high cholesterol and/or high cholesterol complication and/or lipemia and/or lipemia complication and/or coronary heart disease and/or weight management and/or diabetes and/or hyperglycemia” (priority 2006, dated 2014)
Ends that are not written are not given here. * marks the point of attachment. Octanoyl = CCCCCCCC(=O)*

Columns and labels:
[1] = Serum cholesterol and lipid levels (cholesterol, triglycerides, LDL, HDL) after subcutaneous administration in 129Sv mice; format: in vivo; conditions: 129Sv male mice, subcutaneous once daily, n=10 per group; for Reduced levels of cholesterol (serum cholesterol concentration): compared to vehicle-administered controls
Excerpt: FIG. 1A is a bar graph showing serum cholesterol concentration after subcutaneous administration of acylated ghrelin splice variant (acylated SEQ ID NO:2) or un-acylated ghrelin splice variant (SEQ ID NO:2) compared to SEQ ID NO:3 and vehicle-administered controls in 129Sv mice. Reduced levels of cholesterol in the acylated ghrelin splice variant (acylated SEQ ID NO:2) and un-acylated ghrelin splice variant (SEQ ID NO:2) treated groups were observed (5% & 6%, respectively).
(§1) Acylated ghrelin splice variant (20 μg; 29 amino acids in length (SEQ ID NO:2)) or the Vehicle (1.6% mannitol) was administered once daily for 14 successive days, via the subcutaneous (SC) route, to groups comprising n=10 129Sv male mice. No mortality occurred in any of the animals throughout the entire study period. […] All animals were subjected to terminal bleeding, under CO2 anesthesia, immediately prior to euthanasia. Terminal blood collection was performed serially as per animal number, and not as per group. • Hematology: Blood samples (at least 100 μl) were collected into pre-labeled EDTA coated tubes. The tubes were pre-labeled and contain the following information:
Study number, group number, animal number and date. The samples were kept until delivery and analysis at 2-8 ° C. Hematology parameters that were tested using Sysmex KX-21™are: WBC, RBC, HGB, HCT, MCV, MCH, MCHC, Platelets. Differential count was preformed manually. • Biochemistry: Blood for biochemistry analysis was collected into non-coated pre-labeled tubes. The tubes were pre-labeled and contained the following information: Study number, group number, animal number and date. Following clotting, the blood from each animal was centrifuged, and the serum was collected into two pre-labeled tubes and submitted for analysis as follows: Serum, 250 μl, was kept at 2-8° C. until analysis. The samples were subjected to the following listed tests using Hitachi 917 system: Creatinine, Total bilirubin, Glucose, Triglycerides, Cholesterol, HDL, LDL, Total protein, Globulin, Albumin, Urea, Potassium, Phosphorus, Calcium, Sodium, Chloride, sGOT, SGPT, ALP. • Urinalysis: Urine was collected into pre-labeled tubes (as above) from all animals (where possible) prior to and/or after euthanasia. For all surviving animals, urine collection was performed serially as per animal number, and not as per group. An attempt was made to attain the maximal amount as possible to perform the tests listed below. Urinalysis is performed using a commercial test stick (Bayer, Multistix® 10SG) applied to urine sample and evaluating the following parameters: glucose, ketone, pH value, leukocytes, blood, density, nitrite, bilirubin, urobilinogen and protein. • Necropsy Procedures and Macroscopic Examination: All animals were subjected to a fully detailed necropsy. For all surviving animals, necropsy was performed serially as per animal number, and not as per group, immediately following the scheduled terminal bleeding. At necropsy, a thorough examination is made and any abnormality or gross pathological changes in tissues and/or organs are observed and recorded. • Organ/Tissue Collection: The organs and tissues listed (Brain, Liver, Kidney, Stomach, Pancreas, Lungs, Spleen, Heart, Epididymal WAT, Retroperitoneal WAT, Interscapular BAT) were excised and weighed wet as soon as possible after excision and removal of the attached fat and other connective tissues. All organs from one animal were collected into one container, pre-labeled with the following information: Study number, group number, animal number and date. • Results: Reduced levels of cholesterol in the acylated ghrelin splice variant and un-acylated ghrelin splice variant treated groups were observed (5% & 6%, respectively; See FIG. 1A). Reduced levels of HDL in the acylated ghrelin splice variant and un-acylated ghrelin splice variant treated groups (5% & 6%, respectively; see FIG. 1B).

[2] = Plasma glucose level after 7 day treatment in 129Sv mice; format: in vivo; conditions: 129 male mice, 7.2 mg/kg peptide, end of study
Excerpt: FIG. 3A is a bar graph showing percentage of plasma glucose reduction after 7 day treatment with acylated ghrelin splice variant peptides (acylated SEQ ID NO:2, SEQ ID NO:3 and SEQ ID NO:4) or ghrelin in 129Sv mice. The percent reduction is 3.2%; 2% and 4.8% respectively while treatment with ghrelin increased plasma glucose level by 1.3%.
FIG. 3B is a bar graph showing plasma glucose levels after 7 day treatment with acylated ghrelin splice variant peptides (acylated SEQ ID NO:2, SEQ ID NO:3 and SEQ ID NO:4) or ghrelin. 129 male mice were treated for seven days with 7.2 mg/kg peptide. Plasma glucose levels were measured at the end of the study.

[3] = Cumulative body weight gain after once-daily subcutaneous treatment in 129Sv mice; format: in vivo; conditions: male wild-type 129Sv mice, once daily for seven days, 72 mg/kg subcutaneously, n=8 per group
Method: FIG. 2 is a line graph showing cumulative body weight gain of un-acylated ghrelin splice variant-treated (SEQ ID NO:2) 129Sv mice compared to vehicle-treated controls. Un-acylated ghrelin splice variant reduces body weight gain in male wild-type mice (n=8 per group). In mice treated once daily for seven days with un-acylated ghrelin splice variant (72 mg/kg, subcutaneously), cumulative weight gain of the SEQ ID NO:2 group was 25% times less than the vehicle-injected control animals.

[4] = Mortality and clinical signs during subcutaneous administration study; format: in vivo, 129Sv mice; conditions: 20 μg once daily for 14 successive days, 129Sv male mice, n=10
Method: as §1, with “information: […]” for “information:”

GSS (CO-C7H15) FLSPEHQRVQVRPPHKAPH (GSS(Octanoyl)FLSPEHQRVQVRPPHKAPH; listed as Homo sapiens) [SEQ ID NO:3, 22 amino acid human ghrelin splice variant, acylated]
Increased levels of triglycerides ([1]; compared to vehicle): 15%
Percentage of plasma glucose reduction [2]: 2%

GSSFLSPEHQRVQVRPPHKAPHVV (also: acylated (site not given here); listed as Homo sapiens) [SEQ ID NO:4, acylated 24 amino acid human ghrelin splice variant]
Percentage of plasma glucose reduction [2]: 4.8%

GSSFLSPEHQRVQVRPPHKAPHVVPALPL (listed as Homo sapiens) [un-acylated ghrelin splice variant, 29 amino acid human ghrelin splice variant, un-acylated]
Level of triglycerides (in words) ([1]; compared to vehicle): remained unchanged
Reduced levels of HDL ([1]; compared to vehicle): 6%
Reduced levels of cholesterol (serum cholesterol concentration) [1]: 6%
Cumulative weight gain less than the vehicle-injected control animals [3]: 25%

GSSFLSPEHQRVQVRPPHKAPHVVPALPL (not fully specified; listed as Homo sapiens) [acylated SEQ ID NO:2, 29 amino acid human ghrelin splice variant, acylated]
Increased levels of triglycerides ([1]; compared to vehicle): 9%
LDL levels (in words) ([1]; compared to vehicle): remained unchanged
Reduced levels of HDL ([1]; compared to vehicle, listed as acylated ghrelin splice variant): 5%
Reduced levels of cholesterol (serum cholesterol concentration) ([1]; listed as acylated ghrelin splice variant): 5%
Percentage of plasma glucose reduction [2]: 3.2%
Clinical signs [4]: No clinical signs
Mortality [4]: No mortality

ghrelin: polypeptide of GenBank NP_057446; mature 28 amino acid peptide bearing n-octanoyl on the third serine (GSS(Octanoyl)FLSPEHQRVQQRKESKKPPAKLQPR; UniProt Q9UBU3 24-51, looked up) [reference compound]
Increase of plasma glucose level [2]: 1.3%
